Columns and labels:
Desulfovibrio gigas = experiment: Sulfide production by resting cells of D. gigas; assay type: cell-based
Procedure: Experiments in this example were carried out using resting cells of Desulfovibrio gigas rather than growing cells as was the case for the autoanalyzer system employing the Desulfovibrio desulfuricans G100A strain. […] Thus the experiment examined a different organism, different test system, and a different physiological state for the phenomenon of anthraquinone inhibition of sulfide production by Desulfovibrio sp. Active compounds, as determined by the autoanalyzer, were evaluated in comparison with four additional compounds not evaluated in the autoanalyzer.
500 ml cultures of Desulfovibrio gigas were grown on standard BTZ-3 medium as previously described in Example 1 with 30 mM sodium lactate, 30 mM sodium sulfate and 30 mM sodium fumarate. The culture was harvested after 24 h of growth at 31° C. by centrifugation at 8000 rpm in a GSA Sorvall rotor for 20 minutes. The cell pellet was resuspended in 30 ml of incubation assay mixture of the following composition: 50 mM HEPES buffer pH 7 buffer, 2.5 mM sodium lactate, 2.5 mM sodium sulfate. This suspension was centrifuged again at 10,000 rpm in a Sorvall SS-34 rotor for 5 minutes. The resulting cell pellet was resuspended in 5 ml of incubation assay buffer. Cell densities were generally near 10e10 cells/mi.
The samples were assayed for production in the presence of anthraquinones. 200 ul of the cell suspension was added to 1.2 ml of incubation assay mixture in a 5 ml capacity test tube. The tube was gassed with hydrogen gas for 20 minutes then the anthraquinones were added as ethanolic solutions, the tubes were then gassed with hydrogen again for 5 minutes. The reaction mixtures were then incubated for 3 hours at 31° C. The reactions were stopped by the addition of 200 ul of 1N sodium hydroxide. After 20 minutes the alkaline mixtures were centrifuged in a table top microfuge for 4 minutes at 14,000 rpm to remove cells and cell debris. The supernatant was then assayed for sulfide using the ferric chloride-DPD reagent system as described by Siegel et al., Anal. Blochem., 11:126-132, 1965, herein incorporated by reference.

[1] = test system: D. desulfuricans #ATCC27774; experiment: Respiration rate (hydrogen gas uptake) with sulfate as electron acceptor; conditions: Desulfovibrio desulfuricans, ATCC27774, 4 h, pH 7, read-out: Gas Uptake (as percent of control)
[2] = test system: D. desulfuricans strain G100A; experiment: Growth by pyruvate fermentation in the absence of sulfate; assay type: cell-based
Procedure: D. desulfuricans strain G100A was grown using pyruvate fermentation in the absence of sulfate.

[3] = test system: Escherichia coli strain MC106; experiment: Aerobic and anaerobic growth of Escherichia coli; assay type: cell-based; conditions: 5 ppm
Procedure: Another non-sulfate reducing organism, Escherichia coli strain MC106 was grown under aerobic conditions on BTZ-3 with 30 mM sodium succinate as sole carbon and electron source with oxygen as electron acceptor or under anaerobic conditions with hydrogen (80% as electron donor) and carbon dioxide (20%) as gas phase and sodium fumarate (30 mM) as electron acceptor. Both media contained 0.2% yeast extract.
Aerobic growth with succinate refers to growth on succinate as a carbon and electron source and oxygen as an electron acceptor. Anaerobic growth under hydrogen/carbon dioxide refers to growth with hydrogen as an electron donor and fumarate as an electron acceptor.

[4] = test system: B. aureus, B. subtilis, B. stearothermophilus and S. aureus; conditions: background art; cited from earlier work
[5] = test system: D. desulfuricans #ATCC 27774; experiment: Growth of different sulfate-reducers with 1,8-dihydroxyanthraquinone (Example 9); assay type: cell-based; conditions: 3 ppm, 40 hours; control .45
Procedure: Growth was monitored as optical density at 660 nm for 40 hours.

[6] = test system: Thiobacillus denitrificans; experiment: Growth of Thiobacillus denitrificans; assay type: cell-based
Procedure: Thiobacillus denitrificans was grown on BTZ-3 medium as defined in Example 1 (supplemented with reducing agent) and with 30 mM sodium nitrate plus 30 mM sodium thiosulfate. Cultures were anaerobic under a nitrogen atmosphere. Thus growth conditions mimicked those for the sulfate-reducingbacteria as closely as possible. […]

[7] = test system: sulfate reducing bacteria (crude enrichments from various naturally-occuring environments); experiment: Sulfide production by crude enrichments from naturally-occurring environments; assay type: cell-based; conditions: 5 ppm
Procedure: All samples were grown on standard BTZ-3 medium (as defined in Example 1) under hydrogen (80%) carbon dioxide (20%) with 10 mM acetate and 0.1% yeast extract. Mud samples were inoculated into this medium and allowed to grow for 24 h to enrich for sulfate reducing bacteria. A 1 ml aliquot of this enrichment was transferred to fresh medium and the sulfide evolved was measured over a three day period. Sulfide was assayed as described by Siegal, Anal. Biochem. 11: 126-132, 1965, herein incorporated by reference.

In the case of O=C1c2cccc(O)c2C(=O)c2c(O)cccc21 [1,8-Dihydroxyanthraquinone], the activity at 0.1 ppm (Desulfovibrio gigas; Desulfovibrio, 0.1 ppm, 3 hours at 31° C.) is reported as 101%, the activity at 0.5 ppm (Desulfovibrio gigas; Desulfovibrio, 0.5 ppm, 3 hours at 31° C.) is reported as 51% and the activity at 2 ppm (Desulfovibrio gigas; Desulfovibrio, 2 ppm, 3 hours at 31° C.) is reported as 4%. The activity at 5 ppm (Desulfovibrio gigas; Desulfovibrio, 5 ppm, 3 hours at 31° C.) was 2.3%, the “inhibition of sulfide production (in words)” value (Desulfovibrio gigas; resting cells) was “inhibitory properties” and the activity at 0.6 ppm [1] was 66%. The activity at 1.5 ppm [1] was 45%, the activity at 3 ppm [1] was 30% and the “Optical Density @ 660 nm” value ([2]; 0 h, before addition of 3 ppm at 6.5 h, control .11) was “.1”. For the same compound, the “effect on fermentative growth (in words)” value ([2]; 3 ppm) was “did not affect fermentative growth”, the “Optical Density @ 660 nm” value ([2]; 2 h, before addition of 3 ppm at 6.5 h, control .12) was “.12” and the “Optical Density @ 660 nm” value ([2]; 3.5 h, before addition of 3 ppm at 6.5 h, control .14) was “.14”. The “Optical Density @ 660 nm” value ([2]; 6.5 h, time of addition of 3 ppm, control .15) was “.16”, the “Optical Density @ 660 nm” value ([2]; 8.5 h, 3 ppm added at 6.5 h, control .18) was “.16” and the “Optical Density @ 660 nm” value ([2]; 10.7 h, 3 ppm added at 6.5 h, control .19) was “.17”. The “Optical Density @ 660 nm” value ([2]; 25 h, 3 ppm added at 6.5 h, control .26) was “.22”, the “Optical Density @ 660 nm” value ([2]; 32 h, 3 ppm added at 6.5 h, control .37) was “.34” and the “Optical Density @ 660 nm” value ([2]; 45 h, 3 ppm added at 6.5 h, control .46) was “.45”. The “inhibition of aerobic or anaerobic growth (in words)” value [3] was “virtually no inhibition”, the “Optical Density @ 660 nm” value ([3]; aerobic growth with succinate, 0 h, control 0.01) was 0.01 and the “Optical Density @ 660 nm” value ([3]; aerobic growth with succinate, 5.5 h, control 0.17) was 0.24. For the same compound, the “Optical Density @ 660 nm” value ([3]; aerobic growth with succinate, 6.5 h, control 0.37) was 0.39, the “Optical Density @ 660 nm” value ([3]; aerobic growth with succinate, 7.5 h, control 0.38) was 0.40 and the “Optical Density @ 660 nm” value ([3]; aerobic growth with succinate, 24 h, control 1.50) was 1.50. For the same compound, the “Optical Density @ 660 nm” value ([3]; anaerobic growth under hydrogen/carbon dioxide, 0 h, control 0.0) was 0.01, the “Optical Density @ 660 nm” value ([3]; anaerobic growth under hydrogen/carbon dioxide, 3.5 h, control 0.30) was 0.29 and the “Optical Density @ 660 nm” value ([3]; anaerobic growth under hydrogen/carbon dioxide, 4.5 h, control 0.45) was 0.62. For the same compound, the “Optical Density @ 660 nm” value ([3]; anaerobic growth under hydrogen/carbon dioxide, 5.5 h, control 0.61) was 0.79, the “Optical Density @ 660 nm” value ([3]; anaerobic growth under hydrogen/carbon dioxide, 6.0 h, control 0.75) was 0.87 and the “antibacterial activity (in words)” value [4] was “inactive”. For the same compound, the “Optical Density @ 660 nm, treated” value [5] was “.08”, the “Optical Density @ 660 nm” value ([6]; 0 h of growth, before addition of 3 ppm at 19 h, control .02) was “.0” and the “effect on growth (in words)” value ([6]; 3 ppm) was “no effect on the growth of T. denitrificans”. For the same compound, the “Optical Density @ 660 nm” value ([6]; 12 h of growth, before addition of 3 ppm at 19 h, control .06) was “.06”, the “Optical Density @ 660 nm” value ([6]; 15 h of growth, before addition of 3 ppm at 19 h, control .08) was “.08” and the “Optical Density @ 660 nm” value ([6]; 19 h of growth, time of addition of 3 ppm, control .09) was “.09”. The “Optical Density @ 660 nm” value ([6]; 34 h of growth, 3 ppm added at 19 h, control .22) was “.22”, the “Optical Density @ 660 nm” value ([6]; 36 h of growth, 3 ppm added at 19 h, control .29) was “.25” and the “Optical Density @ 660 nm” value ([6]; 38 h of growth, 3 ppm added at 19 h, control .32) was “.27”. The “Optical Density @ 660 nm” value ([6]; 43 h of growth, 3 ppm added at 19 h, control .40) was “.32”, the “Optical Density @ 660 nm” value ([6]; 55 h of growth, 3 ppm added at 19 h, control 1.5) was 1.5 and the “inhibition of enrichments (in words)” value [7] was “the majority of enrichments from natural sources were inhibited”. For the same compound, the “sulfide production, treated” value ([7]; SM-Lewes (Lewes saltmarsh), control 6.4) was 4.5 umol sulfide/day, the “sulfide production, treated” value ([7]; VF-A2 (Valley Garden Park, aerobic), control 64.0) was -11.0 umol sulfide/day and the “sulfide production, treated” value ([7]; VF-A (Valley Garden Park, aerobic), control 24.0) was -2.0 umol sulfide/day. For the same compound, the “sulfide production, treated” value ([7]; VF-AN (Valley Garden Park, anaerobic), control 67.0) was 2.8 umol sulfide/day, the “sulfide production, treated” value ([7]; VS-A (Valley Stream State Park, aerobic), control 49.0) was -1.0 umol sulfide/day and the “sulfide production, treated” value ([7]; VS-AN2 (Valley Stream State Park, anaerobic), control 116.0) was 0.0 umol sulfide/day. The “sulfide production, treated” value ([7]; VS-AN (Valley Stream State Park, anaerobic), control 12.0) was -4.0 umol sulfide/day, the “sulfide production, treated” value ([7]; WADS (Wilmington anaerobic digestor), control 106.7) was 71.0 umol sulfide/day and the “sulfide production, treated” value ([7]; WCC-A1 (White Clay Creek Preserve, aerobic), control 411.0) was 67.0 umol sulfide/day. The “sulfide production, treated” value ([7]; WCC-A2 (White Clay Creek Preserve, aerobic), control 388.0) was 49.0 umol sulfide/day, the “sulfide production, treated” value ([7]; WCC-AN1 (White Clay Creek Preserve, anaerobic), control 345.0) was 80.0 umol sulfide/day and the “sulfide production, treated” value ([7]; WCC-AN2 (White Clay Creek Preserve, anaerobic), control 288.0) was 37.0 umol sulfide/day.

From patent US5385842A, “Anthraquinones as inhibitors of sulfide production from sulfate-reducing bacteria” (E. I. Du Pont de Nemours and Company, priority 1993, dated 1995)
